# “Also recorded” adds a separate entry of the source.
# Legend:
# hiPSC-CMs = test: Optical measurement of action potential duration (APD90) in hiPSC-CMs using voltage-sensitive dye di-4-ANEPPS
# Experimental: The plates were then incubated at 37°C, 5% CO2. Forty‐eight hours post‐thaw, 100% of the plating medium was replaced with CDI Maintenance Medium (CDI, CMC‐100‐120‐001), and further, 100% media changes were performed every 2 days after that.
# Afterwards, the medium containing VSD was replaced by fresh serum‐free medium, and the cells were returned to the incubator. The multi‐well plate was placed in an environmentally controlled stage incubator (37°C, 5% CO2, water‐saturated air atmosphere) (Okolab Inc, Burlingame, CA, USA) of the CelIOPTIQ platform (Clyde Biosciences Ltd, Glasgow, Scotland). The di‐4‐ANEPPS fluorescence signal was recorded from a 0.2 × 0.2 mm area using a 40× (NA 0.6) objective lens. Excitation wavelength was 470 ± 10 nm using a light‐emitting diode (LED), and emitted light was collected by two photomultipliers (PMTs) at 510–560 and 590–650 nm respectively. LED, PMT, associated power supplies and amplifiers were supplied by Cairn Research Ltd (Kent, UK). […] A 20 s recording was then taken 30 min after exposure to the drug or vehicle with only one concentration applied per well. The records were subsequently analysed offline using proprietary software (CellOPTIQ). The procedure was repeated from four to five times, and parallel matched control (vehicle) measurements were taken on cardiomyocytes with equivalent concentrations of vehicle (DMSO). AP parameters were measured, including APD at 50, 75 and 90% repolarization (APD50, APD75 and APD90 respectively). Data are given as % change from control for the treated groups (vehicle, control and drug). This allowed a single comparison to be made at each concentration, and every experiment was performed with its own set of controls (vehicle). No data were used more than once.
# hERG channels = hERG channels (Homo sapiens, UniProt Q12809); test: hERG current inhibition, automated planar patch clamp in HEK293 cells stably expressing hERG
# Experimental: (§1) Currents were low‐pass filtered at 10 kHz using the internal Bessel filter and sampled at 25 kHz. The extracellular solution for hERG current recording contained 140 mM NaCl, 4 mM KCl, 2 mM CaCl2, 1 mM MgCl2,5 mM D‐glucose and 10 mM HEPES (pH 7.4) (Sigma‐Aldrich). The intracellular solution for hERG current recording contained 50 mM KCl, 10 mM NaCl, 60 mM KF, 20 mM EGTA and 10 mM HEPES (pH 7.2). The extracellular solution for measuring sodium currents in HEK cells stably expressing the human clone of Nav1.5 (GenBank M77235) contained 4 mM KCl, 20 mM NaCl, 1.8 mM CaCl2, 0.75 mM MgCl2, 5 mM HEPES, 120 mM choline chloride and pH 7.4 using NaOH. The intracellular solution for sodium current recording contained 120 mM CsF, 20 mM CsCl, 5 mM EGTA, 5 mM HEPES and pH 7.4 using CsOH. All chemicals were obtained from Sigma‐Aldrich Chemie GmbH (Taufkirchen, Germany). The compound solutions were applied by means of the automated NPC‐16 Patchliner planar patch‐clamp platform.
# Data are presented as mean ± SEM for at least five cells from two different batches or for three independent measurements with HEK293 cells.
# The concentration–inhibition relationships were analysed by plotting the normalized values of peak tail current versus peak tail steady current in the presence of the respective cumulatively applied compound concentrations (Figure 4B, C). Data points were fitted using Hill equation.
# [1] = target: Cav1.2 (rabbit α1-subunit with β2a and α2-δ1) (Oryctolagus cuniculus, UniProt P15381); test: Barium current (IBa) inhibition through Cav1.2 in transfected tsA-201 cells, manual patch clamp; settings: rabbit, pH 7.4, Cav1.2 IC50 (peak IBa inhibition), 0.2 Hz, 50 ms pulses from -80 to +10 mV
# Experimental: (§2) The transfection of tsA‐201 cells was performed using the FUGENE6 Transfection Reagent (Roche Diagonstics GmbH, Mannheim, Germany) following standard protocols. The tsA‐201 cells were used until passage number 15. […] The extracellular bath solution (in mM: BaCl2 20, MgCl2 1, HEPES 10, choline‐Cl 90) was titrated to pH 7.4 with methanesulfonic acid. […] The drugs were applied to cells under voltage clamp using a microminifold perfusion system. Ca^2+ channel block was estimated as peak IBa inhibition during a train of short (50 ms) test pulses from −80 mV at a frequency of 0.2 Hz. Patch clamp experiments to study hERG, Nav1.5 and Cav1.2 currents were performed at room temperature (22–25°C). All data were digitized and saved to disc. Current traces were filtered at 5 kHz and sampled at 10 kHz. The pClamp software package (Version 7.0 Axon Instruments, Inc.) was used for data acquisition and preliminary analysis. Microcal Origin 7.0 was used for analysis, and sigmoidal curves were fitted using the Hill equation.
# (§3) Use‐dependent channel inhibition was studied during trains of 1 Hz and 50 ms test pulses (from −80 to +10 mV). After the application of 20 test pulses in control (absence of drug), the cells were incubated for 3 min with drug at rest. Peak current inhibition during the first pulse (1st, Figure 6C) in the presence of the drug reflects ‘resting state’ block. Additional current inhibition during a subsequently applied pulse train illustrates use‐dependent block. Peak current inhibition in control and drug are compared in Figure 6D.
# [2] = target: rabbit CaV1.2 α1-subunit with β2a and α2-δ1 (Oryctolagus cuniculus, UniProt P15381); test: as above
# Experimental: as §2, §3
# Nav1.5 = Nav1.5 (Homo sapiens, UniProt Q14524); test: Sodium current inhibition in HEK cells stably expressing Nav1.5, planar patch clamp; settings: for IC50: Nav1.5 IC50 (peak INa inhibition)
# Experimental: as §1
# hERG potassium channels = settings: read-out: Ki binding studies; radioligand binding; ref Shagufta et al 2009; cited from earlier work
# [3] = Homo sapiens, 0.5 h, read-out: Changes in APD90 in hiPSC-CMs
# Nav1.5, sequence (Q14524 whole entry): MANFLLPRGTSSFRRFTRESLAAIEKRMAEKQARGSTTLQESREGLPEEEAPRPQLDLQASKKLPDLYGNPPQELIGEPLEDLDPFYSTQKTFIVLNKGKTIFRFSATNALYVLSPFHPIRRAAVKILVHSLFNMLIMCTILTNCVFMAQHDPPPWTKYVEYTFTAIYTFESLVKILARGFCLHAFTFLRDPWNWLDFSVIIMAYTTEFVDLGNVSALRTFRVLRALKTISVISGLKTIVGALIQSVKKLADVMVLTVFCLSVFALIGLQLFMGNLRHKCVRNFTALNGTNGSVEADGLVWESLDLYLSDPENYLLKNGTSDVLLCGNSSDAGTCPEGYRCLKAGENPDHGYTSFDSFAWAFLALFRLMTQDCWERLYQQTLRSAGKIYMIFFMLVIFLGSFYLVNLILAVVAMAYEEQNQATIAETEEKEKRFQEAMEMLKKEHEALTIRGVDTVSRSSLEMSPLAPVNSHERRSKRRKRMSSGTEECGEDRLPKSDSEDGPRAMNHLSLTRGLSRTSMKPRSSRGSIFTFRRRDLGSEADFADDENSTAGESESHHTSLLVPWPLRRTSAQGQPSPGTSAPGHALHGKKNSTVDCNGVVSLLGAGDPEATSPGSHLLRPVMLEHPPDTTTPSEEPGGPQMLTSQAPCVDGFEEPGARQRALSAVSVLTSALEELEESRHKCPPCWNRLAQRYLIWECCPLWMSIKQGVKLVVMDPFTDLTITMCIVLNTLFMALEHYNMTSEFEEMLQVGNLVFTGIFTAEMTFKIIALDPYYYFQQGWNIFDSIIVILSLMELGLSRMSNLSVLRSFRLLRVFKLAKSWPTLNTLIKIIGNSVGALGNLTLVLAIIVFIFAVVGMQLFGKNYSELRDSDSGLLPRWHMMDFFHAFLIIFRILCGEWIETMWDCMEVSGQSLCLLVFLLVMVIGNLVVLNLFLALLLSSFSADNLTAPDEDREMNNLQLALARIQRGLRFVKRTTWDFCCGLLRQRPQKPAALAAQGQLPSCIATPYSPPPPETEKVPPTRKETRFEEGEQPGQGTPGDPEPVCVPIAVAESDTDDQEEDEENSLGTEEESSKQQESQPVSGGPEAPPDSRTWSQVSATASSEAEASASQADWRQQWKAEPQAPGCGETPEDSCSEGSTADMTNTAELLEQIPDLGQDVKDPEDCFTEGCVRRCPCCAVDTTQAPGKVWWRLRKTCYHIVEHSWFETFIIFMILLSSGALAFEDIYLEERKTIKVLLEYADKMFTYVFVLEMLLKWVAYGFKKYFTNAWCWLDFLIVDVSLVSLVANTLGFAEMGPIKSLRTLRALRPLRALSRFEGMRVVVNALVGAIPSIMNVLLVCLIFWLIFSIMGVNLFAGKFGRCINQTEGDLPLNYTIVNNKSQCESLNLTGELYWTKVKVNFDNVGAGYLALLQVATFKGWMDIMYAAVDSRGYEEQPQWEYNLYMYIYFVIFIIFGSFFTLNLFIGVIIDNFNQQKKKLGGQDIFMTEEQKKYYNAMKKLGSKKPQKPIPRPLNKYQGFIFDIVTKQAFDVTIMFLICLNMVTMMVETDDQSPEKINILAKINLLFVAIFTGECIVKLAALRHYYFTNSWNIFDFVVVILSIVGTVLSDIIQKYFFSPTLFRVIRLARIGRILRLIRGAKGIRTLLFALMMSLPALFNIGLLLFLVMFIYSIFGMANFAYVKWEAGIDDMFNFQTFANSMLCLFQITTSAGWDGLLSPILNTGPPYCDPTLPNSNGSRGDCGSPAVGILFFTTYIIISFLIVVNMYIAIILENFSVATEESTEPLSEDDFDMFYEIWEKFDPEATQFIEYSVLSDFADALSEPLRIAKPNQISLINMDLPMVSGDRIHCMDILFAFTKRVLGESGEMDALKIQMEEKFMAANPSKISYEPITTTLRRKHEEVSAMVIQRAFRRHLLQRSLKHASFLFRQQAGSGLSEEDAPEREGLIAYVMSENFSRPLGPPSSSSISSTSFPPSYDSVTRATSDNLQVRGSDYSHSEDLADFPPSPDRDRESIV
# hERG channels, sequence (Q12809 whole entry): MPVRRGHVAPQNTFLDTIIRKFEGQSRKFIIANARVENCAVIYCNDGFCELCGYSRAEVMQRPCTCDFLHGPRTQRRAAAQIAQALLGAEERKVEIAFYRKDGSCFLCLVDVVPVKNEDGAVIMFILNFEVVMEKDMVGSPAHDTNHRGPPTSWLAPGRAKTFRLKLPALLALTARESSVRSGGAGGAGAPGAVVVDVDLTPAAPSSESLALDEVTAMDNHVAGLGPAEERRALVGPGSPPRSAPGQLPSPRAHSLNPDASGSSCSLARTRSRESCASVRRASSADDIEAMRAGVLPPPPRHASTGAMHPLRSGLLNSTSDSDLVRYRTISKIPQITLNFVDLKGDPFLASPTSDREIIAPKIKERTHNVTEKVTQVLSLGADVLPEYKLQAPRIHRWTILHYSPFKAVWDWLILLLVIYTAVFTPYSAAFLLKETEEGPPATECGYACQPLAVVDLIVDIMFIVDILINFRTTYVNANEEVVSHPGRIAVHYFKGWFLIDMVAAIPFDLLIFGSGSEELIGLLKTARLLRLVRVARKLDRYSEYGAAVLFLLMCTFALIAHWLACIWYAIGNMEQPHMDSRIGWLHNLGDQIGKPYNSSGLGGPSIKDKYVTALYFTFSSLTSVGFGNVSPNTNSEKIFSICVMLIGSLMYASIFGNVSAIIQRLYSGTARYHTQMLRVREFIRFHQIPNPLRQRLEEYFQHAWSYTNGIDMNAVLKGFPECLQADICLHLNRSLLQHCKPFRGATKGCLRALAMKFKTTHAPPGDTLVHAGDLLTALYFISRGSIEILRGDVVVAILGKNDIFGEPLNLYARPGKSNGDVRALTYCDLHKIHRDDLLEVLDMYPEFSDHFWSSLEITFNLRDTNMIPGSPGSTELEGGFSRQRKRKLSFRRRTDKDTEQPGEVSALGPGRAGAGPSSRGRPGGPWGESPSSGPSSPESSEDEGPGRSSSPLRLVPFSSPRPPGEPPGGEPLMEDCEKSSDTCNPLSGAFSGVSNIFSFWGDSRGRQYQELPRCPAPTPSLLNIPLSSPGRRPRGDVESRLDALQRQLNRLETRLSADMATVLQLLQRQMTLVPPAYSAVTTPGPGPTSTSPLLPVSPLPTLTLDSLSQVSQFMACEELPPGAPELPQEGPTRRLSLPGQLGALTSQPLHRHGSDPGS
compound,measurement,setting,value
COc1ccc(OCCN(C)CCc2ccccc2)cc1 [Dofe42],activity at 0.01 µM,hiPSC-CMs; [3],113%
same,activity at 0.1 µM,hiPSC-CMs; [3],92%
same,activity at 0.3 µM,hiPSC-CMs; [3],95%
same,activity at 1 µM,hiPSC-CMs; [3],98%
same,EC (50% APD prolongation),"hiPSC-CMs; Homo sapiens, read-out: D150 (concentration that prolongs the AP by 50%), APD90 in hiPSC-CMs",> 0.6 µM
same,Effect on APD90 / AP prolongation (in words),hiPSC-CMs; hiPSC-CMs,did not affect APD90 even at 1 μM; also recorded: did not induce prolongation of AP
same,IC50,hERG channels,0.213 ± 0.0835 µM
same,IC50,[1],38 ± 9.3 µM
same,Peak current decay after 20 pulses at 1 Hz (use-dependent block),"[2]; 100 μM, 50 ms pulses from -80 to +10 mV, control 12 ± 2%",38 ± 2%
same,Resting state and use-dependent block of Cav1.2,[2]; 1 Hz trains of 50 ms pulses after 3 min incubation at rest,pronounced resting state block and additional use‐dependent block
same,Shift of Nav1.5 concentration-response curve towards lower concentrations,Nav1.5; -80 mV versus -140 mV holding potential,5.6 fold
same,IC50,Nav1.5; holding potential -80 mV,13.8 ± 1.9 µM
same,IC50,"Nav1.5; holding potential -140 mV, 0.2 Hz",77.9 ± 9.7 µM
same,Ki,hERG potassium channels,0.0033 ± 0.002 µM
